BindingDB's records for patent US20250122174 (Shenzhen Yuanli Shenwan Innovative Medicine, 2025)

These molecules were tested against Mitogen-activated protein kinase kinase kinase kinase 1 (Homo sapiens, UniProt Q92918) (assay: HPK1 Inhibition Assay).
Sequence of Mitogen-activated protein kinase kinase kinase kinase 1 (Q92918 whole entry): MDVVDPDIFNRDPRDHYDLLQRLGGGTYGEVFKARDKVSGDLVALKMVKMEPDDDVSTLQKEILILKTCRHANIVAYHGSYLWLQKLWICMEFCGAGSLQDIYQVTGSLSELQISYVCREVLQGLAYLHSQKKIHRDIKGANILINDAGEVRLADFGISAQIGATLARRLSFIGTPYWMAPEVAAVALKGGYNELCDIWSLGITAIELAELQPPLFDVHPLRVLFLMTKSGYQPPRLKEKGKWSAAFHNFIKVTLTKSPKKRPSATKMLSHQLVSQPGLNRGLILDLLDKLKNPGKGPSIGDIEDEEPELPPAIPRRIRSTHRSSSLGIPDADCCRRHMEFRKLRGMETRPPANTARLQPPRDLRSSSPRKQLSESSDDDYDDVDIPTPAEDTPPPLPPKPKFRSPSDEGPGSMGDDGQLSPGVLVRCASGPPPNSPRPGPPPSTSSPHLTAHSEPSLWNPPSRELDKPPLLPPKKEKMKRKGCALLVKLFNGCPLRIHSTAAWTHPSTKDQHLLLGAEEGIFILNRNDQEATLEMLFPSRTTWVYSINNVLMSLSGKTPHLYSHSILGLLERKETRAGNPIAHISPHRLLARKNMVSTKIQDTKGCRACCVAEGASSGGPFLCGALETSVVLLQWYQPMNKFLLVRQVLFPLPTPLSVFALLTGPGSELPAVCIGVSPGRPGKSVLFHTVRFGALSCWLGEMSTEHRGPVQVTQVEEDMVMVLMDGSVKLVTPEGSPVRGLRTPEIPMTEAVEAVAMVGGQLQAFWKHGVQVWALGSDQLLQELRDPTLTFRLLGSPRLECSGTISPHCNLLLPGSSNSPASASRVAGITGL
Protocol: A stock solution of 10 mM test compound was prepared in DMSO. The compound was prepared by 5-fold and 10-point serial dilutions with HPK1 kinase assay buffer. The HPK1 kinase assay buffer contained 40 mM Tris, pH 7.5; 20 mM MgCl2, 0.1 mg/ml BSA, and 50 μM DTT. 7.5 ng/μl of Active HPK1 (Promega, V4098) and 0.1 μg/ml MBP substrate protein were added to the reaction system. The final concentration of ATP in the HPK1 kinase reaction system was 10 μM. Serial diluted compounds were transferred to the reaction system and incubated at room temperature for 1 hr. 5 μL of ADP-Glo™ Reagent (Promega, V9101) was added and incubated for 40 min to stop the kinase reaction and deplete the unconsumed ATP. […] The luminescence was measured with a plate-reading luminometer.
In the case of Cn1c(-c2ccncc2F)nc2c(N3CCC[C@H]3CN)c(NC(=O)c3ccnn(-c4c(F)cccc4F)c3=O)ccc21 [US20250122174, Example 43], the IC50 is reported as < 100 nM. Cc1nc2c(N3C[C@@H]4C[C@H]3CN4)c(NC(=O)c3ccc(=O)n(-c4c(F)cccc4F)n3)ccc2n1C [US20250122174, Example 75] was tested, and the IC50 was < 100 nM. Cc1nc2c(N3CCNC(=O)C3)c(NC(=O)c3ccc(=O)n(-c4c(F)cccc4F)n3)ccc2n1C [US20250122174, Example 83] was tested, and the IC50 was < 100 nM. Cc1nc2c(N3CC[C@@H](N)C3)c(NC(=O)c3ccc(=O)n(-c4c(Cl)cccc4Cl)n3)ccc2n1C [US20250122174, Example 108] was tested, and the IC50 was < 100 nM. With CC(C)c1nc2c(N3CC[C@H]4NCC[C@H]43)c(NC(=O)c3ccc(=O)n(-c4c(F)cccc4F)n3)ccc2n1C [US20250122174, Example 135] the IC50 was < 100 nM. CC(C)n1ncc2c(N3CCC(N)CC3)c(NC(=O)c3ccc(=O)n(-c4c(F)cccc4F)n3)ccc21 [US20250122174, Example 184] was tested, and the IC50 was < 100 nM.
